Values of other authors in patent publication US20090197941A1, “Pharmaceutical Compositons for the Treatment of Chronic Obstructive Pulmonary Disease” (priority 2005, published 2009).

Assays:
[1] = tested on: U87 human glioma cells; conditions: increasing concentrations of CBD, Boyden chamber, read-out: IC50 of tumour cell migration
[2] = biological target: CB2 receptors (Homo sapiens, UniProt P34972); conditions: known in the art
[3] = biological target: CB1 receptors (Homo sapiens, UniProt P21554); conditions: known in the art
CB1 receptors, sequence (P21554 whole entry): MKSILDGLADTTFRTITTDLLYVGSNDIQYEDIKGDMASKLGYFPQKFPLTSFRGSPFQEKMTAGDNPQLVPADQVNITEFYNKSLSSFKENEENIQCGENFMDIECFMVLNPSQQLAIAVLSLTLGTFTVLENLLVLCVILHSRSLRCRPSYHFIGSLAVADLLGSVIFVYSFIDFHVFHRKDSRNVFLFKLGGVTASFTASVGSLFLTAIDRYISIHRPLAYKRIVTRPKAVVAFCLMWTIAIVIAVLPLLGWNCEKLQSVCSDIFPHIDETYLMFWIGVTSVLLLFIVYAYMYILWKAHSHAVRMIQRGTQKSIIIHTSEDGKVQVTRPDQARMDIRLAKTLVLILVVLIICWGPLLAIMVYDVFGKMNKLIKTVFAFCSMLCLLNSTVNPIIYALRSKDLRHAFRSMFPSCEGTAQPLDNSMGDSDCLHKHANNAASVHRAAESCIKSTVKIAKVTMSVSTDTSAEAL

CB2 receptors, sequence (P34972 whole entry): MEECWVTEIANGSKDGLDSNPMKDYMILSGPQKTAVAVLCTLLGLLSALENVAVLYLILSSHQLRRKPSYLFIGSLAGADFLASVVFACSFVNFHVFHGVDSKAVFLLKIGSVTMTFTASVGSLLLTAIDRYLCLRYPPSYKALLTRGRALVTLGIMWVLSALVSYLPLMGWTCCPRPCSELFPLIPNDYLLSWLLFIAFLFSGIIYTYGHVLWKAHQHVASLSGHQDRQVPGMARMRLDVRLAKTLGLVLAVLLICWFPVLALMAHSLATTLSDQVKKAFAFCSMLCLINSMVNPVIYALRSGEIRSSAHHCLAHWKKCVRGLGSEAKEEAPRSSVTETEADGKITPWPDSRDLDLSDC

C=C(C)[C@@H]1CCC(C)=C[C@H]1c1c(O)cc(CCCCC)cc1O [CBD, cannabidiol]
IC50 [1]: 5.05 ± 1.1 µM
action at CB2 receptors [2]: not to act
action at CB1 receptors [3]: only very weakly
